What all share (assay type): cell-based
The target of one data set is T1, hCav1.2/β2/α2δ channels (Homo sapiens, UniProt Q13936).
T1 construct: expressed in transfected cells; host or cells: CHO cells
As to the kind of experiment: hCav1.2 L-type calcium channel automated patch clamp. The note with it: CHO cells, read-out: Cav1.2 ion channel inhibition. Here is the method: (§1) Compounds of the present invention were tested for their anti-arrhythmic activity in a series of in vitro cardiac ion channel assays using cloned human channels expressed in CHO cells or HEK293 cells: • 1. Cloned L-type calcium channels (hCav1.2, encoded by the human CACNA1C gene and coexpressed with the (32 subunit, encoded by the human CACNB2 gene and the α2δ1 subunit encoded by the human CACNA2D1 gene, in CHO cells), responsible for Ica,L, high threshold calcium current. • 2. Cloned hERG potassium channels (encoded by the KCNH2 gene and expressed in human embryonic kidney, HEK293, cells) responsible for IKr. • 3. Cloned hKir2.1 potassium channels (encoded by the human KCNJ2 gene and expressed in HEK293 cells), responsible for IKI, inwardly rectifying potassium current. • 4. Cloned hKvLQT1/hminK potassium channels (encoded by the human KCNQ1 and KCNE1 genes and coexpressed in CHO cells), responsible for IKs, slow delayed rectifier potassium current. • 5. Cloned hKv1.5 potassium channels (encoded by the human KCNA5 gene and expressed in CHO cells), responsible for IKur, ultra-rapid delayed rectifier potassium current. • 6. Cloned hNav1.5 sodium channels (SCN5A gene, expressed in CHO cells). • 7. Cloned hKir3.1/hKir3.4 potassium channels (expressed by the human KCNJ3 and KCNJ5 genes and co-expressed in HEK293 cells) responsible for IACh, inwardly rectifying potassium current.
(§2) One concentration of a compound of the present invention was applied for a […] interval via disposable polyethylene micropipette tips to naïve cells (n≧2, where n=the number cells/concentration). Each solution exchange, performed in quadruplicate, consisted of aspiration and replacement of 45 μL volume of the extracellular well of the Sealchip16. Duration of exposure to the test compound was three minutes. For the hKir3.1/hKir3.4 assay, two concentrations of a compound of the present invention were used and the duration of exposure was 3 minutes.
(§3) In preparation for an automated patch clamp procedure recording session, intracellular solution was loaded into the intracellular compartments of the Sealchip16 or Qplate planar electrode. Cell suspension was pipetted into the extracellular compartments of the Sealchip16 or Qplate planar electrode. After establishment of a whole-cell configuration, membrane currents were recorded using dual-channel patch clamp amplifiers in the PatchXpress® or Qpatch HT® system. Before digitization, the current records were low-pass filtered at one-fifth of the sampling frequency. […]
Onset and steady state block of hCav1.2/β2/α2δ channels were measured using a stimulus voltage pattern consisting of a depolarizing test pulse (duration, 200 ms; amplitude, 10 mV) at 10 s intervals from a −80 mV holding potential. Peak current was measured during the step to 10 mV. […]

The target of data set [1] is T2, hKir2.1 potassium channels (Homo sapiens, UniProt P63252).
T2 construct: expressed in transfected cells; host or cells: HEK293 cells
T2 sequence (P63252 1-427): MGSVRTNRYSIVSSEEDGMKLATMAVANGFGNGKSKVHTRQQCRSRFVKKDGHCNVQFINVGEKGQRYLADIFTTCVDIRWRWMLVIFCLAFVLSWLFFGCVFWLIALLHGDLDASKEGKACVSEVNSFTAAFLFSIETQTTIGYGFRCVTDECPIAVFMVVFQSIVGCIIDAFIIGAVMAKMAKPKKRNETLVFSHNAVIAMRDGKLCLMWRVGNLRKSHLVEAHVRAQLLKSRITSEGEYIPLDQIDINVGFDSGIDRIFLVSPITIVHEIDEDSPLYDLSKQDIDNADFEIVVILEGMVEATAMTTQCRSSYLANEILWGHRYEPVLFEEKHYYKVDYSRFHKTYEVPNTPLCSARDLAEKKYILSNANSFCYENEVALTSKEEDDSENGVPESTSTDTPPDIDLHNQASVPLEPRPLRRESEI
As to the kind of experiment: hKir2.1 potassium channel automated patch clamp. The note with it: HEK293 cells, read-out: Kir2.1 ion channel inhibition. The protocol: as §1, §2
In preparation for an automated patch clamp procedure recording session, intracellular solution was loaded into the intracellular compartments of the Sealchip16 or Qplate planar electrode. Cell suspension was pipetted into the extracellular compartments of the Sealchip16 or Qplate planar electrode. After establishment of a whole-cell configuration, membrane currents were recorded using dual-channel patch clamp amplifiers in the PatchXpress® or Qpatch HT® system. […]
Onset and steady state block of hKir2.1 current was measured using a pulse pattern with fixed amplitudes (hyperpolarization: −110 mV amplitude, 300 ms duration) repeated at 10 s intervals from a holding potential of −70 mV. Current amplitude was measured at the end of the step to −110 mV.

Data set [2] addresses T3, hKir3.1/hKir3.4 potassium channels (Homo sapiens, UniProt P48544+P48549).
T3 construct: expressed in transfected cells; host or cells: HEK293 cells
T3 sequence (P48549 1-501): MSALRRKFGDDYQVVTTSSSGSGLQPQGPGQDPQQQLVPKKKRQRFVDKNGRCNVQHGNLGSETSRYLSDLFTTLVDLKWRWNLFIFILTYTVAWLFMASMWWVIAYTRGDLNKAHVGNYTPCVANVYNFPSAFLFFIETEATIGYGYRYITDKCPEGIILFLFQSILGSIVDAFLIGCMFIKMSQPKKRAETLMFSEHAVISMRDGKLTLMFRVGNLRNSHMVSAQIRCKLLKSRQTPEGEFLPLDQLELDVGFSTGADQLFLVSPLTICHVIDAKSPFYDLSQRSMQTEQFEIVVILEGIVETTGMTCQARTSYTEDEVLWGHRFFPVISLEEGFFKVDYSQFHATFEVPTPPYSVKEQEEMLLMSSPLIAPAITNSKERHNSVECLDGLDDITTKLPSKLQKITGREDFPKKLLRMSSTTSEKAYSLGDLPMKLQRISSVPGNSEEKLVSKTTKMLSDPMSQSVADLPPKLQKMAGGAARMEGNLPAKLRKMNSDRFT
T3 sequence (P48544 1-419): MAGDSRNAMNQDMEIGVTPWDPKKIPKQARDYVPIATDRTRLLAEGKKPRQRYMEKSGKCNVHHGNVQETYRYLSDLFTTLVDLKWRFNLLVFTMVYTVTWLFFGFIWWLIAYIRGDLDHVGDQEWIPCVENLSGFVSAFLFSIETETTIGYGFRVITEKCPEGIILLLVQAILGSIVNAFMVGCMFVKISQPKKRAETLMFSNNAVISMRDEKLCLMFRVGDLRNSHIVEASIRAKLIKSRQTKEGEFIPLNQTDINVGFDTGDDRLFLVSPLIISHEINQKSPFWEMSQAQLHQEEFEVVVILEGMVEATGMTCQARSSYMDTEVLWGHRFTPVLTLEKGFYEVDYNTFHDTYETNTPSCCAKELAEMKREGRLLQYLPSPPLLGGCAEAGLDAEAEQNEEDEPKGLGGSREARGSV
As to the kind of experiment: hKir3.1/hKir3.4 potassium channel automated patch clamp. The note with it: HEK293 cells; for inhibition at 1 µM: read-out: K(ach) @ 1 μM ion channel inhibition; for inhibition at 10 µM: read-out: K(ach) ion channel inhibition. The protocol:
as §1, §2
(§4) In preparation for an automated patch clamp procedure recording session, intracellular solution was loaded into the intracellular compartments of the Sealchip16 or Qplate planar electrode. Cell suspension was pipetted into the extracellular compartments of the Sealchip16 or Qplate planar electrode. After establishment of a whole-cell configuration, membrane currents were recorded using dual-channel patch clamp amplifiers in the PatchXpress® or Qpatch HT® system. Before digitization, the current records were low-pass filtered at one-fifth of the sampling frequency.
(§5) Valid whole-call recordings met the following criteria: • 1. Membrane resistance (Rm)≧200 MΩ • 2. Leak current≦25% channel current. hCav1.2 Test Procedure
The in vitro effects of the compounds of the present invention were evaluated at room temperature using the PatchXpress (Model 7000A, Molecular Devices, Union City, Calif.), an automated parallel patch clamp system.

Data set [3] concerns the target T4, hKv1.5 potassium channels (Homo sapiens, UniProt P22460).
T4 construct: expressed in transfected cells; host or cells: CHO cells
As to the kind of experiment: hKv1.5 potassium channel automated patch clamp. The note with it: CHO cells, read-out: Kv1.5 ion channel inhibition. Here is the method:
as §1, §2, §3
Onset and steady state block of hKv1.5 current was measured using a pulse pattern with fixed amplitudes (depolarization: +20 mV amplitude, 300 ms duration) repeated at 10 s intervals from a holding potential of −80 mV. Current amplitude was measured at the end of the step to +20 mV.
(In patch-clamp work, channel activity is measured electrically.)

Data set [4] deals with T5, hKvLQT1/hminK potassium channels (Homo sapiens, UniProt P51787).
T5 construct: expressed in transfected cells; host or cells: CHO cells
As to the kind of experiment: hKvLQT1/hminK potassium channel automated patch clamp. To be noted: CHO cells, read-out: KvLQT ion channel inhibition. The protocol: as §1, §2
In preparation for an automated patch clamp procedure recording session, intracellular solution was loaded into the intracellular compartments of the Sealchip16 or Qplate planar electrode. […] After establishment of a whole-cell configuration, membrane currents were recorded using dual-channel patch clamp amplifiers in the PatchXpress® or Qpatch HT® system. […]
Onset and steady state block of hKvLQT1/hminK current was measured using a pulse pattern with fixed amplitudes (depolarization: +40 mV for 2 s; repolarization: −40 mV for 0.5 s) repeated at 15 s intervals from a holding potential of −80 mV. Current amplitude was measured at the end of the step to +40 mV. […] Leakage current was measured after chromanol 293B addition and subtracted from the total membrane current record.

In a further data set the target is T6, hNav1.5 sodium channels (Homo sapiens, UniProt Q14524).
T6 construct: expressed in transfected cells; host or cells: CHO cells
As to the kind of experiment: hNav1.5 sodium channel automated patch clamp. To be noted: CHO cells. The protocol:
as §1, §2, §4, §5
Onset and steady-state block of hNav1.5 current was measured using double pulse pattern consisting of a series of two depolarizing test pulses to −15 mV. From a holding potential of −80 mV, an initial hyperpolarizing conditioning pre-pulse (−120 mV amplitude, 200 ms duration,) was followed immediately by the first depolarizing test pulse to −15 mV (200 ms duration). This was followed by a hyperpolarizing conditioning inter-pulse to −80 mV (200 ms duration) and then a second depolarizing test pulse to −15 mV for 20 ms. The pulse pattern was repeated at 10 s intervals and peak current amplitudes at both test pulses were measured.

Data set [5] concerns the target T7, hERG potassium channel (KCNH2, IKr) (Homo sapiens, UniProt Q12809).
T7 construct: expressed in transfected cells; host or cells: HEK293 cells
As to the kind of experiment: hERG potassium channel automated patch clamp. The note with it: HEK293 cells expressing cloned hERG potassium channels, read-out: hERG ion channel inhibition. Background: Block of hERG is tested as a sign of cardiac risk.
Procedure: One concentration of a compound of the present invention was applied for a five-minute interval via disposable polyethylene micropipette tips to naïve cells (n≧2, where n=the number cells/concentration). Each solution exchange, performed in quadruplicate, consisted of aspiration and replacement of 45 μL volume of the extracellular well of the Sealchip16. Duration of exposure to the test compound was three minutes.
Onset and block of hERG current was measured using a stimulus voltage pattern consisting of a 500 ms prepulse to −40 mV (leakage subtraction), a 2-second activating pulse to +40 mV, followed by a 2-second test pulse to −40 mV. Leakage current was calculated from the current amplitude evoked by the prepulse and subtracted from the total membrane current record.

Setting [6] is: phasic block, read-out: Nav1.5 phasic ion channel inhibition.
Setting [7] is: tonic block, read-out: Nav1.5 tonic ion channel inhibition.

Read-outs that look alike come from different tables or passages of the source.

T6 sequence (Q14524 whole entry): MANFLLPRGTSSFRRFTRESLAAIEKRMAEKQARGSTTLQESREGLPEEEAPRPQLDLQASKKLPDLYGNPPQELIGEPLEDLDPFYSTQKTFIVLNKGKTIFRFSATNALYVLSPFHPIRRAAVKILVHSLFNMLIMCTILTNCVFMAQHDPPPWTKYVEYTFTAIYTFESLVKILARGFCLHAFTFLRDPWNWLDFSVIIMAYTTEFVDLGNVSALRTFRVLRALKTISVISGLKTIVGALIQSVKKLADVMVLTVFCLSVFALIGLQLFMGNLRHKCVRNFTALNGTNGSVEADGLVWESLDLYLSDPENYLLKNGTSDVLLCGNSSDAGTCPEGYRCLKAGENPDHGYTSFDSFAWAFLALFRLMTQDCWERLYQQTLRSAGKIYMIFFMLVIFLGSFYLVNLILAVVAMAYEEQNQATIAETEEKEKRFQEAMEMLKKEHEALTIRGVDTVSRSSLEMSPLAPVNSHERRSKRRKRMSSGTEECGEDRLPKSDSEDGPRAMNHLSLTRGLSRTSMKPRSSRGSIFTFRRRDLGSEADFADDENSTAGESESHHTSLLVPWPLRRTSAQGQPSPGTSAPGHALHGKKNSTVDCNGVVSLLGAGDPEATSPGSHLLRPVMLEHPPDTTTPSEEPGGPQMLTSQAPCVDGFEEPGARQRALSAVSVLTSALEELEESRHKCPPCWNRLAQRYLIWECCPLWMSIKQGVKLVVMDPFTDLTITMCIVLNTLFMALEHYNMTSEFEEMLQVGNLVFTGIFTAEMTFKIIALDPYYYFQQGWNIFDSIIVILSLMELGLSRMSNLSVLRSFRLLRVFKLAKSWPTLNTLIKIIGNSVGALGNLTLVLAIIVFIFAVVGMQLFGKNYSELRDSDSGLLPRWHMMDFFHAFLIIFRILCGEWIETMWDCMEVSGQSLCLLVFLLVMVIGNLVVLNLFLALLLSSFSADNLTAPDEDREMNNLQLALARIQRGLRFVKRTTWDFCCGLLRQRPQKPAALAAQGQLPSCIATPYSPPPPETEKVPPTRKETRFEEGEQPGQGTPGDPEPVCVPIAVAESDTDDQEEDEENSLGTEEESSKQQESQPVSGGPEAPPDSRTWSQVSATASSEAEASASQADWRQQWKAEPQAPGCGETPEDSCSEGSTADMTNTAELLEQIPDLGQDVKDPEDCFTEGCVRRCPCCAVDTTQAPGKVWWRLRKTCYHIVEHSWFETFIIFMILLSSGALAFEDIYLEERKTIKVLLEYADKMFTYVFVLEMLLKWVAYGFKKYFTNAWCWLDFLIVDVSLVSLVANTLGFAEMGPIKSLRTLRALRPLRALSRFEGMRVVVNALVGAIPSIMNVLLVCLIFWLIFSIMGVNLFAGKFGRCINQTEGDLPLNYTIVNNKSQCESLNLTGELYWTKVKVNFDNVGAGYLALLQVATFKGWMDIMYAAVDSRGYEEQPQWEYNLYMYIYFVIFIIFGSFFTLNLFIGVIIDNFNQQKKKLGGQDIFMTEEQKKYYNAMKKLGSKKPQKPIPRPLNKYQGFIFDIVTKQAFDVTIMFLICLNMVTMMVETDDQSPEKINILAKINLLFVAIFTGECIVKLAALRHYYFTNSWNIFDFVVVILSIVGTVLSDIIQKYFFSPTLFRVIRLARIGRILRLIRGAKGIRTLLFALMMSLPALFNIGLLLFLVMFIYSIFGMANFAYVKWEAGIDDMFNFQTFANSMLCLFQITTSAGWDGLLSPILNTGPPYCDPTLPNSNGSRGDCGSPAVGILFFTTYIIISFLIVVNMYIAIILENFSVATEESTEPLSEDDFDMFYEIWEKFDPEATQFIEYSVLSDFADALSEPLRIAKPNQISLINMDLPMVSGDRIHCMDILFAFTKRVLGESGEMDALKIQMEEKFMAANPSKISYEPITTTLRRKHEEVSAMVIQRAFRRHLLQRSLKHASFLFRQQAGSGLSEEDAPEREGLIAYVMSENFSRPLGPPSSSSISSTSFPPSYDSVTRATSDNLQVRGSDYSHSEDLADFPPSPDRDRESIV
T4 sequence (P22460 whole entry): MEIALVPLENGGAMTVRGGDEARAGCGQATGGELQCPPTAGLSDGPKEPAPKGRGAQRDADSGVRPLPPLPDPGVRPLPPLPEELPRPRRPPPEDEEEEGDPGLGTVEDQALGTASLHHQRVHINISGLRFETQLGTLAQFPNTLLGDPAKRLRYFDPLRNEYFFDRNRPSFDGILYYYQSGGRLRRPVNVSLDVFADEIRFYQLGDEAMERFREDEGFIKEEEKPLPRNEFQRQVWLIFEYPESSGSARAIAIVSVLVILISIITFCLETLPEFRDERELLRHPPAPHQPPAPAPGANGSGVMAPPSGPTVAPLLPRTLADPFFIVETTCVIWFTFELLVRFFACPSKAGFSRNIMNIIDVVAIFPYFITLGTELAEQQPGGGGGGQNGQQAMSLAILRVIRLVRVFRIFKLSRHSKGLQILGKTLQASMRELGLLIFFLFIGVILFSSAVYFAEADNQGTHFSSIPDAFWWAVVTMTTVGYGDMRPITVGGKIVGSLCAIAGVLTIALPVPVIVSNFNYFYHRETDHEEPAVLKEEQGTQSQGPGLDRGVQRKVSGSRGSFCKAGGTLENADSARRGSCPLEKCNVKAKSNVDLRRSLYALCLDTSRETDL
T7 sequence (Q12809 whole entry): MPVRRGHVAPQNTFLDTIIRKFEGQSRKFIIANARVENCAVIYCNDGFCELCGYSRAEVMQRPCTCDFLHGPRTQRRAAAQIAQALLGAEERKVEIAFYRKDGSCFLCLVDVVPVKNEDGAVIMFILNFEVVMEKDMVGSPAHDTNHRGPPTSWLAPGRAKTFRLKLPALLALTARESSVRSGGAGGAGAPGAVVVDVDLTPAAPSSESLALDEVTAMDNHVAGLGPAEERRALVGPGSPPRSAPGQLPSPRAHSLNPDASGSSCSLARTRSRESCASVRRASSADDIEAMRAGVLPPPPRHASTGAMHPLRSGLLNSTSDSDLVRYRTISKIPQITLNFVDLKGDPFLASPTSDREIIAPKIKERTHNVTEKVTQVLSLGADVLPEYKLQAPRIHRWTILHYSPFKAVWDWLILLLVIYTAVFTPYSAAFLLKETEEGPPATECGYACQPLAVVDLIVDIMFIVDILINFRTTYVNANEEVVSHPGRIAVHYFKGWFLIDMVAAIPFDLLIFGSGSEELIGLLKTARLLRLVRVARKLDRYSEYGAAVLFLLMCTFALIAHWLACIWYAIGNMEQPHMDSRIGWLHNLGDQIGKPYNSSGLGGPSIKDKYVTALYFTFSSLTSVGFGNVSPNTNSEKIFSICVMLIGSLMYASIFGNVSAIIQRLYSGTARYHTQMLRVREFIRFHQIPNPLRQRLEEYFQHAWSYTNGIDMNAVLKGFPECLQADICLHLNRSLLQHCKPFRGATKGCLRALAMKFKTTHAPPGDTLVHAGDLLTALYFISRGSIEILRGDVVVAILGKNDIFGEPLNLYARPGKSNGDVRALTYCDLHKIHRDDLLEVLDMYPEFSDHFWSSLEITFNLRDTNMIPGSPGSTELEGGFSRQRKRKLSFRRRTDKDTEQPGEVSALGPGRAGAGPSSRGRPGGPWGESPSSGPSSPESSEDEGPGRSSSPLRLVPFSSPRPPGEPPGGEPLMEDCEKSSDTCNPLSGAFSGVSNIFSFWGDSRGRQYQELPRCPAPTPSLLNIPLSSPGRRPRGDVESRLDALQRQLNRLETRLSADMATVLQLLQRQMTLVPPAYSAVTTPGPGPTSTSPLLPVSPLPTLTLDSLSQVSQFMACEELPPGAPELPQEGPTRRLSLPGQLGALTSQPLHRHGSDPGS

On to `CCCCc1oc2ccccc2c1C(=O)c1cc(C(F)(F)F)c(OCCN(CC)CC)c(C(F)(F)F)c1` [Compound 1, (2-butylbenzofuran-3-yl)(4-(2-(diethylamino)ethoxy)-3,5-bis(trifluoromethyl)phenyl)methanone], for which the inhibition at 10 µM on hCav1.2/β2/α2δ channels was determined as 101%; in data set [1], 0.3%; in data set [2], 49%; in data set [3], 54%; in data set [4] it was 49%; at hNav1.5 sodium channels (setting [6]), 26%. For the same compound, at hNav1.5 sodium channels (setting [7]), the inhibition at 10 µM came out at 11.5%. The inhibition at 1 µM in data set [2] came out at 16%. The inhibition at 3 min, 10 µM in data set [5] amounted to 55%.

On to `CCCCc1oc2ccccc2c1C(=O)c1cc(I)c(OCCN(CC)CC)c(C(F)(F)F)c1` [Compound 2, (2-butylbenzofuran-3-yl)(4-(2-(diethylamino)ethoxy)-3-iodo-5-(trifluoromethyl)phenyl) methanone], for which the inhibition at 10 µM at hCav1.2/β2/α2δ channels is 81%; in data set [1] it was 2.7%; in data set [2], 4.6%; in data set [3] it was 21%; in data set [4], 2.5%; on hNav1.5 sodium channels (setting [6]), 44%. For the same compound, the inhibition at 10 µM at hNav1.5 sodium channels (setting [7]) is 23%. Also, the inhibition at 1 µM in data set [2] worked out at 1.4%. In addition, in data set [5], the inhibition at 3 min, 10 µM was 75%.

In the case of `CCCCc1oc2ccccc2c1C(=O)c1ccc(OCCN(CC)CC)c(C(F)(F)F)c1` [Compound 3, (2-butylbenzofuran-3-yl)(4-(2-(diethylamino)ethoxy)-3-(trifluoromethyl)phenyl)methanone], the inhibition at 10 µM was 2% at hCav1.2/β2/α2δ channels; 9.7% in data set [1]; 11% in data set [2]; 25% in data set [3]; 8.4% in data set [4]; 86% at hNav1.5 sodium channels (setting [6]). Further, the inhibition at 10 µM on hNav1.5 sodium channels (setting [7]) stood at 48%. The inhibition at 1 µM in data set [2] came to 2.1%. The inhibition at 3 min, 10 µM in data set [5] was 74%.

Regarding `CCCCc1oc2ccccc2c1C(=O)c1cc(I)c(OCCN(CC)CC)c(I)c1` [Amiodarone, 2-n-butyl 3-[4-(2-diethylaminoethoxy) 3,5-diiodobenzoyl] benzofuran, reference compound], the inhibition at 10 µM at hCav1.2/β2/α2δ channels was 7.7%; in data set [1], 0.9%; in data set [2] it was 23%; in data set [3] it was 0.7%; in data set [4], -0.6%; at hNav1.5 sodium channels (setting [6]) it was 44%. For the same compound, the inhibition at 10 µM at hNav1.5 sodium channels (setting [7]) turned out to be 6.8%. Further, the inhibition at 1 µM in data set [2] stood at 4.5%.

Broadly, the inhibition is the relative decrease from the control value, in per cent.

Source of the values: patent publication US9895340B2, “Fluorinated benzofuran derivatives” (SciFluor Life Sciences, Inc., priority 2012, dated 2018).
